Assay results: patent US8410150B2, “Inhibitors of carnitine palmitoyltransferase and treating cancer” (University Health Network, priority 2007, dated 2013)
Where a name gives a salt, the structure may show the parent alone.

Target: T1, human CPT1A (Homo sapiens, UniProt P50416)
T1 construct: made in house; host or cells: Saccharomyces cerevisiae (pESC-trp) or cultured mammalian cells (pCDNA3.1); mitochondrial extract
T1 sequence (P50416 1-773): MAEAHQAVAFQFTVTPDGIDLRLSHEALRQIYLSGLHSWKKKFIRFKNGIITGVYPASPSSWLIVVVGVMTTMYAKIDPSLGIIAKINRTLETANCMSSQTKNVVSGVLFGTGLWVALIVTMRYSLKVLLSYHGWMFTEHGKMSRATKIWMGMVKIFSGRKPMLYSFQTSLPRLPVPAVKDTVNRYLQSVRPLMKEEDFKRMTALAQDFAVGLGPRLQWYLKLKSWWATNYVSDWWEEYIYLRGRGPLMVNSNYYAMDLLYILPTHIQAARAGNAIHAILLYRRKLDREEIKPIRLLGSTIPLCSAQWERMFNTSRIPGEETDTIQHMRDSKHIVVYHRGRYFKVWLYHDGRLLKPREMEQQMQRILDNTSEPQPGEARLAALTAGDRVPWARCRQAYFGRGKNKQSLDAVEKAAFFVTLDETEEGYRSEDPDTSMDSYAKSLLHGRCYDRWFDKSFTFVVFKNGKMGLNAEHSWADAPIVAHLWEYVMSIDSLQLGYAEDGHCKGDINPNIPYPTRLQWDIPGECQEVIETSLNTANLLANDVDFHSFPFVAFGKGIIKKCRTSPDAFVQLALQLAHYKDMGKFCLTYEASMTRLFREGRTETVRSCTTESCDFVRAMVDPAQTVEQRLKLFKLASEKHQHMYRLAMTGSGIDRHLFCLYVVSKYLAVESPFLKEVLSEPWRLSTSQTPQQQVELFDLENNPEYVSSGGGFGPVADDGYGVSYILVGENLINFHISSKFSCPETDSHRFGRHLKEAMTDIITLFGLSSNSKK
Assay: Human CPT1A LC/MS assay
Assay type: biochemical
Conditions: human CPT1A LC/MS assay, dose response format
In short: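 Mitochondrial extracts (1.6 μg protein) expressing human CPT1A, preincubated 10 min with compound in 20% DMSO, then reacted 10 min at room temperature with 20 μM palmitoyl-CoA, 50 μM L-carnitine (pH 7.5). Palmitoyl carnitine was quantified by LC/MS against a myristoyl carnitine standard; 16-point, 2-fold titrations gave dose response.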

| SMILES | IC50 |
| --- | --- |
| Cc1cc(COc2ccccc2)oc1C(=O)N[C@H](CC(=O)[O-])C[N+](C)(C)C [Example S65, (R)-3-(3-methyl-5-(phenoxymethyl)furan-2-carboxamido)-4-(trimethyl-ammonio)butanoate] | 100 to 1000 µM |
| C[N+](C)(C)C[C@@H](CC(=O)O)NS(=O)(=O)c1ccc(-c2ccccn2)s1 [Example S21, (R)-3-(5-(pyridin-2-yl)thiophene-2-sulfonamido)-4-(trimethylammonio)-butanoate 2,2,2-trifluoroacetate] | 1000 to 2500 µM |
| CCCCc1ccc(NC(=O)N[C@H](CC(=O)[O-])C[N+](C)(C)C)c(C)c1 [Example S13, (R)-2-(3-(4-Butyl-2-methylphenyl)ureido)-3-carboxy-N,N,N-trimethylpropan-1-aminium] | 1000 to 2500 µM |
| C[N+](C)(C)C[C@@H](CC(=O)O)NC(=O)c1ccc(C#Cc2ccsc2)s1 [Example S97, (R)-3-carboxy-N,N,N-trimethyl-2-(5-(thiophen-3-ylethynyl)thiophene-2-carboxamido)propan-1-aminium 2,2,2-trifluoroacetate] | ≤ 1 µM |
| C[N+](C)(C)C[C@@H](CC(=O)[O-])NC(=O)Nc1cc(C(F)(F)F)ccc1Cl [Example S85, (R)-3-(3-(2-chloro-5-(trifluoromethyl)phenyl)ureido)-4-(trimethyl-ammonio)butanoate] | 1000 to 2500 µM |
| COc1ncc(C#Cc2ccc(C(=O)N[C@H](CC(=O)O)C[N+](C)(C)C)o2)cn1 [Example S117] | 100 to 1000 µM |
| CN(C)C[C@@H](CC(=O)O)NC(=O)N(C)c1ccc(Oc2ccccc2)cc1 [Example S33, (R)-4-(dimethylammonio)-3-(3-methyl-3-(4-phenoxyphenyl)-ureido)butanoate] | > 2500 µM |
| C[N+](C)(C)C[C@@H](CC(=O)[O-])NC(=O)c1ccc(C#Cc2ccccc2)o1 [Example S3, (R)-3-(5-(phenylethynyl)furan-2-carboxamido)-4-(trimethylammonio)-butanoate] | 10 to 100 µM |
| C[N+](C)(C)C[C@@H](CC(=O)O)NC(=O)c1ccc(CS(=O)(=O)Cc2ccccc2)o1 [Example S61, (R)-3-(5-(benzylsulfonylmethyl)furan-2-carboxamido)-4-(trimethyl-ammonio)butanoate 2,2,2-trifluoroacetate] | 100 to 1000 µM |
| CCCCCc1ccc(CCc2ccc(C(=O)N[C@H](CC(=O)O)C[N+](C)(C)C)s2)cc1 [Example S102, (R)-3-carboxy-N,N,N-trimethyl-2-(5-(4-pentylphenethyl)thiophene-2-carboxamido)propan-1-aminium 2,2,2-trifluoroacetate] | ≤ 1 µM |
| CCCCCCCCc1ccc(N(C)S(=O)(=O)N[C@H](CC(=O)O)C[N+](C)(C)C)cc1 [Example S93, (R)-3-(N-methyl-N-(4-octylphenyl)sulfamoylamino)-4-(trimethylammonio)-butanoate] | 10 to 100 µM |
| C[N+](C)(C)C[C@@H](CC(=O)[O-])NC(=O)c1ccc(CN2CCOCC2)o1 [Example S59, (R)-3-(5-(morpholinomethyl)furan-2-carboxamido)-4-(trimethylammonio)-butanoate] | 1000 to 2500 µM |
| C[N+](C)(C)C[C@@H](CC(=O)O)NC(=O)c1ccc(NS(=O)(=O)c2cccs2)cc1 [Example S2, (R)-3-(4-(thiophene-2-sulfonamido)benzamido)-4-(trimethylammonio)-butanoate] | 100 to 1000 µM |
| C[N+](C)(C)C[C@@H](CC(=O)O)NC(=O)c1ccc(C#Cc2ccsc2)o1 [Example S116, (R)-3-carboxy-N,N,N-trimethyl-2-(5-(thiophen-3-ylethynyl)furan-2-carboxamido)propan-1-aminium 2,2,2-trifluoroacetate] | 10 to 100 µM |
| Cc1ccc(C#Cc2ccc(S(=O)(=O)N[C@H](CC(=O)O)C[N+](C)(C)C)s2)cc1 [Example S80, (R)-3-carboxy-N,N,N-trimethyl-2-(5-(p-tolylethynyl)thiophene-2-sulfonamido)propan-1-aminium 2,2,2-trifluoroacetate] | 10 to 100 µM |
| C[N+](C)(C)C[C@@H](CC(=O)[O-])NC(=O)c1ccc(CSCc2ccccc2)o1 [Example S56, (R)-3-(5-(benzylthiomethyl)furan-2-carboxamido)-4-(trimethylammonio)-butanoate] | 1 to 10 µM |
| C[N+](C)(C)C[C@@H](CC(=O)O)NC(=O)c1ccc(C#Cc2ccccc2)s1 [Example S43, (R)-3-(5-(phenylethynyl)thiophene-2-carboxamido)-4-(trimethylammonio)-butanoate] | ≤ 1 µM |
| CCCCCCCC#Cc1ccc(NS(=O)(=O)N[C@H](CC(=O)[O-])C[N+](C)(C)C)cc1 [Example S104, (R)-3-(N-(4-(non-1-ynyl)phenyl)sulfamoylamino)-4-(trimethylammonio) butanoate] | 1 to 10 µM |
| C[N+](C)(C)C[C@@H](CC(=O)O)NS(=O)(=O)c1ccc(Oc2ccccc2)nc1 [Example S19, (R)-3-carboxy-N,N,N-trimethyl-2-(6-phenoxypyridine-3-sulfonamido)propan-1-aminium 2,2,2-trifluoroacetate] | 100 to 1000 µM |
| C[N+](C)(C)C[C@@H](CC(=O)[O-])NC(=O)Nc1ccccc1-c1ccccc1 [Example S101, (R)-2-(3-biphenyl-2-ylureido)-3-carboxy-N,N,N-trimethylpropan-1-aminium] | 1000 to 2500 µM |
| C[N+](C)(C)C[C@@H](CC(=O)O)NC(=O)c1ccc(CCc2ccccc2)o1 [Example S42, (R)-3-(5-phenethylfuran-2-carboxamido)-4-(trimethylammonio)-butanoate] | ≤ 1 µM |
| Cc1ncoc1C(=O)N[C@H](CC(=O)O)C[N+](C)(C)C [Example S49, (R)-3-carboxy-N,N,N-trimethyl-2-(4-methyloxazole-5-carboxamido)-propan-1-aminium trifluoroacetate] | 100 to 1000 µM |
| C[N+](C)(C)C[C@@H](CC(=O)O)NC(=O)Nc1ccccc1I [Example S99, (R)-3-carboxy-2-(3-(2-iodophenyl)ureido)-N,N,N-trimethylpropan-1-aminium] | > 2500 µM |
| C[N+](C)(C)C[C@@H](CC(=O)[O-])NC(=O)c1ccc(COc2cccc3ccccc23)o1 [Example S58, (R)-3-(5-((naphthalen-1-yloxy)methyl)furan-2-carboxamido)-4-(trimethyl-ammonio)butanoate] | 1 to 10 µM |
| CCOc1ccc(S(=O)(=O)N[C@H](CC(=O)O)C[N+](C)(C)C)cc1NC(=O)N1CCOCC1 [Example S74, (R)-3-carboxy-2-(4-ethoxy-3-(morpholine-4-carboxamido)phenyl-sulfonamido)-N,N,N-trimethylpropan-1-aminium 2,2,2-trifluoroacetate] | > 2500 µM |
